{
  "source": "patent US10266548B2",
  "about": "“Substituted benzylindazoles for use as Bub1 kinase inhibitors in the treatment of hyperproliferative diseases” (Bayer Intellectual Property GmbH, priority 2011, dated 2019)",
  "key": {"[1]": {"target": "catalytic domain of human Bub1 (amino acids 704-1085) (Homo sapiens (Human), UniProt O43683)", "sequence (O43683 704-1085)": "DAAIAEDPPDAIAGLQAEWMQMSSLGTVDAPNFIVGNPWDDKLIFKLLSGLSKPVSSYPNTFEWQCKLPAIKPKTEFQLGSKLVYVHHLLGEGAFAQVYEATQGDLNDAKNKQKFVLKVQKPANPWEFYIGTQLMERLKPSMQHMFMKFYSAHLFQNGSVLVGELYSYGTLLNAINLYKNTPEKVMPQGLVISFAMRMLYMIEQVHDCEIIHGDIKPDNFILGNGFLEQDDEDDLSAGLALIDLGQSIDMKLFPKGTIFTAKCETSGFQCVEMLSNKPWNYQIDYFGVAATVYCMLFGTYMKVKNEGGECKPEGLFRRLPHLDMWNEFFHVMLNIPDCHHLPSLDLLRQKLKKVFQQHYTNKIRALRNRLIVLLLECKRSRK", "assay": "Bub1 kinase assay (TR-FRET)", "assay_type": "biochemical", "details": "10 μM ATP, 1 μM peptide substrate; read-out: Biological Assay 1: Bub1 kinase assay median IC50", "method_in_brief": "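Phosphoserine product detected by TR-FRET (Eu-labeled anti-mouse IgG/anti-phosphoserine antibody to streptavidin-XL665) after 1 h at 22 °C. IC50 from 4-parameter logistic fit.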"}, "HeLa cells": {"system": "HeLa cells", "assay": "Proliferation assay (HeLa cell line)", "assay_type": "cell-based", "details": "read-out: Biological Assay 2: Proliferation assay (HeLa cell line) median IC50"}, "[2]": {"details": "Homo sapiens, 96 h, 4 days, crystal violet"}},
  "note": "Counter-ions that a name gives are not always drawn. Like-named read-outs stand apart in the source and are kept apart here.",
  "data": [
    {"smiles": "NC(=O)c1cnccc1Nc1nc(-c2nn(Cc3ccccc3F)c3ccccc23)ncc1OCCO", "note": "[Example 13-5, 4-({2-[1-(2-fluorobenzyl)-1H-indazol-3-yl]-5-(2-hydroxyethoxy)pyrimidin-4-yl}amino)pyridine-3-carboxamide]", "values": [
      {"measurement": "IC50", "setting": "[1]", "result": 0.0065, "unit": "µM"},
      {"measurement": "IC50", "setting": "HeLa cells; [2]", "result": "≥ 10", "unit": "µM"}
    ]},
    {"smiles": "O=C(OCCO)c1cnccc1Nc1nc(-c2nn(Cc3ccccc3F)c3ccccc23)ncc1OCCO", "note": "[Example 13-6, 2-hydroxyethyl 4-({2-[1-(2-fluorobenzyl)-1H-indazol-3-yl]-5-(2-hydroxyethoxy)pyrimidin-4-yl}amino)pyridine-3-carboxylate]", "values": [
      {"measurement": "IC50", "setting": "[1]", "result": 0.0086, "unit": "µM"},
      {"measurement": "IC50", "setting": "HeLa cells; [2]", "result": "≥ 10", "unit": "µM"}
    ]},
    {"smiles": "COc1ccc(Cn2nc(-c3ncc(OC4CC4)c(Nc4ccncc4)n3)c3ccccc32)cc1", "note": "[Example 14-1, 5-(cyclopropyloxy)-2-[1-(4-methoxybenzyl)-1H-indazol-3-yl]-N-(pyridin-4-yl)pyrimidin-4-amine]", "values": [
      {"measurement": "IC50", "setting": "[1]", "result": 3.3, "unit": "µM"},
      {"measurement": "IC50", "setting": "HeLa cells; Homo sapiens, 96 h", "result": "≥ 10", "unit": "µM"}
    ]},
    {"smiles": "OC[C@H](O)COc1cnc(-c2nn(Cc3ccccc3F)c3ccccc23)nc1Nc1ccncc1", "note": "[Example 15-2, (2S)-3-({2-[1-(2-fluorobenzyl)-1H-indazol-3-yl]-4-(pyridin-4-ylamino)pyrimidin-5-yl}oxy)propane-1,2-diol hydrochloride (1:1)]", "values": [
      {"measurement": "IC50", "setting": "[1]", "result": 0.0055, "unit": "µM"},
      {"measurement": "IC50", "setting": "HeLa cells; Homo sapiens, 96 h", "result": "≥ 10", "unit": "µM"}
    ]},
    {"smiles": "CCOc1cc(F)c(Cn2nc(-c3ncc(OCCO)c(Nc4ccncc4)n3)c3ccccc32)c(F)c1", "note": "[Example 15-3, 2-({2-[1-(4-ethoxy-2,6-difluorobenzyl)-1H-indazol-3-yl]-4-(pyridin-4-ylamino)pyrimidin-5-yl}oxy)ethanol hydrochloride (1:1)]", "values": [
      {"measurement": "IC50", "setting": "[1]", "result": 0.0057, "unit": "µM"},
      {"measurement": "IC50", "setting": "HeLa cells; 4 days, crystal violet", "result": 1.7, "unit": "µM"}
    ]},
    {"smiles": "COc1cnc(-c2nn(Cc3c(Cl)cccc3Cl)c3ccccc23)nc1Nc1ccncc1", "note": "[Example 15-4, 2-[1-(2,6-dichlorobenzyl)-1H-indazol-3-yl]-5-methoxy-N-(pyridin-4-yl)pyrimidin-4-amine hydrochloride (1:1)]", "values": [
      {"measurement": "IC50", "setting": "[1]", "result": 0.0073, "unit": "µM"},
      {"measurement": "IC50", "setting": "HeLa cells; Homo sapiens, 96 h", "result": "≥ 10", "unit": "µM"}
    ]},
    {"smiles": "COc1cnc(-c2nn(Cc3c(Cl)ccc(CO)c3Cl)c3ccccc23)nc1Nc1ccncc1", "note": "[Example 15-5, [2,4-dichloro-3-({3-[5-methoxy-4-(pyridin-4-ylamino)pyrimidin-2-yl]-1H-indazol-1-yl}methyl)phenyl] methanol hydrochloride (1:1)]", "values": [
      {"measurement": "IC50", "setting": "[1]", "result": 0.012, "unit": "µM"},
      {"measurement": "IC50", "setting": "HeLa cells; 4 days, crystal violet", "result": 9.9, "unit": "µM"}
    ]},
    {"smiles": "CCOc1cc(F)c(Cn2nc(-c3nccc(N(C(C)=O)c4ccncc4)n3)c3ccccc32)c(F)c1", "note": "[Example 16-1, N-{2-[1-(4-ethoxy-2,6-difluorobenzyl)-1H-indazol-3-yl]pyrimidin-4-yl}-N-(pyridin-4-yl)acetamide]", "values": [
      {"measurement": "IC50", "setting": "[1]", "result": 0.17, "unit": "µM"},
      {"measurement": "IC50", "setting": "HeLa cells; [2]", "result": 2.8, "unit": "µM"}
    ]},
    {"smiles": "CCOc1cc(F)c(Cn2nc(-c3nccc(N(C(=O)COC)c4ccncc4)n3)c3ccccc32)c(F)c1", "note": "[Example 16-2, N-{2-[1-(4-ethoxy-2,6-difluorobenzyl)-1H-indazol-3-yl]pyrimidin-4-yl}-2-methoxy-N-(pyridin-4-yl)acetamide]", "values": [
      {"measurement": "IC50", "setting": "[1]", "result": 0.023, "unit": "µM"},
      {"measurement": "IC50", "setting": "HeLa cells; [2]", "result": 3.5, "unit": "µM"}
    ]},
    {"smiles": "CCOc1cc(F)c(Cn2nc(-c3nccc(N(C(=O)C4CCOCC4)c4ccncc4)n3)c3ccccc32)c(F)c1", "note": "[Example 16-3, N-{2-[1-(4-ethoxy-2,6-difluorobenzyl)-1H-indazol-3-yl]pyrimidin-4-yl}-N-(pyridin-4-yl)tetrahydro-2H-pyran-4-carboxamide]", "values": [
      {"measurement": "IC50", "setting": "[1]", "result": 0.21, "unit": "µM"},
      {"measurement": "IC50", "setting": "HeLa cells; Homo sapiens, 96 h", "result": 4.1, "unit": "µM"}
    ]},
    {"smiles": "CCOc1cc(F)c(Cn2nc(-c3nccc(N(C(=O)COCCOC)c4ccncc4)n3)c3ccccc32)c(F)c1", "note": "[Example 16-4, N-{2-[1-(4-ethoxy-2,6-difluorobenzyl)-1H-indazol-3-yl]pyrimidin-4-yl}-2-(2-methoxyethoxy) N-(pyridin-4-yl)acetamide]", "values": [
      {"measurement": "IC50", "setting": "[1]", "result": 0.02, "unit": "µM"},
      {"measurement": "IC50", "setting": "HeLa cells; [2]", "result": 2.7, "unit": "µM"}
    ]},
    {"smiles": "CCOc1cc(F)c(Cn2nc(-c3nccc(N(CCO)c4ccncc4)n3)c3ccccc32)c(F)c1", "note": "[Example 17-1, 2-[{2-[1-(4-ethoxy-2,6-difluorobenzyl)-1H-indazol-3-yl]pyrimidin-4-yl}(pyridin-4-yl)amino]ethanol]", "values": [
      {"measurement": "IC50", "setting": "[1]", "result": 0.17, "unit": "µM"},
      {"measurement": "IC50", "setting": "HeLa cells; [2]", "result": "≥ 10", "unit": "µM"}
    ]},
    {"smiles": "CCOc1cc(F)c(Cn2nc(-c3nccc(N(CC4(CO)COC4)c4ccncc4)n3)c3ccccc32)c(F)c1", "note": "[Example 17-2]", "values": [
      {"measurement": "IC50", "setting": "[1]", "result": 2.4, "unit": "µM"},
      {"measurement": "IC50", "setting": "HeLa cells; 4 days, crystal violet", "result": "≥ 10", "unit": "µM"}
    ]},
    {"smiles": "COc1cnc(-c2nn(Cc3c(F)cc(Br)cc3OCC(F)(F)F)c3ccccc23)nc1Nc1ccncc1", "note": "[Example 18-1, 2-{1-[4-bromo-2-fluoro-6-(2,2,2-trifluoroethoxy)benzyl]-1H-indazol-3-yl}-5-methoxy-N-(pyridin-4-yl)pyrimidin-4-amine]", "values": [
      {"measurement": "IC50", "setting": "[1]", "result": 0.016, "unit": "µM"},
      {"measurement": "IC50", "setting": "HeLa cells; [2]", "result": 1.4, "unit": "µM"}
    ]},
    {"smiles": "COc1cnc(-c2nn(Cc3c(OCC(F)(F)F)cc(Br)cc3OCC(F)(F)F)c3ccccc23)nc1Nc1ccncc1", "note": "[Example 18-2]", "values": [
      {"measurement": "IC50", "setting": "[1]", "result": 2.8, "unit": "µM"},
      {"measurement": "IC50", "setting": "HeLa cells; 4 days, crystal violet", "result": 3.5, "unit": "µM"}
    ]},
    {"smiles": "CCOc1cc(F)c(Cn2nc(-c3ncc(OCC(=O)O)c(Nc4ccncc4)n3)c3ccccc32)c(F)c1", "note": "[Example 19-2]", "values": [
      {"measurement": "IC50", "setting": "[1]", "result": 0.0063, "unit": "µM"},
      {"measurement": "IC50", "setting": "HeLa cells; 4 days, crystal violet", "result": "≥ 10", "unit": "µM"}
    ]},
    {"smiles": "COc1cnc(-c2nn(Cc3c(Cl)ccc(C(N)=O)c3Cl)c3ccccc23)nc1Nc1ccncc1", "note": "[Example 20-2, 2,4-dichloro-3-({3-[5-methoxy-4-(pyridin-4-yla-mino)pyrimidin-2-yl]-1H-indazol-1-yl}methyl) benzamide]", "values": [
      {"measurement": "IC50", "setting": "[1]", "result": 0.04, "unit": "µM"},
      {"measurement": "IC50", "setting": "HeLa cells; [2]", "result": 3.3, "unit": "µM"}
    ]},
    {"smiles": "COc1cnc(-c2nn(Cc3c(Cl)ccc(C(=O)N(C)C)c3Cl)c3ccccc23)nc1Nc1ccncc1", "note": "[Example 20-3, 2,4-dichloro-3-({3-[5-methoxy-4-(pyridin-4-yla-mino)pyrimidin-2-yl]-1H-indazol-1-yl}methyl)-N,N-dimethyl-benzamide]", "values": [
      {"measurement": "IC50", "setting": "[1]", "result": 1.2, "unit": "µM"},
      {"measurement": "IC50", "setting": "HeLa cells; Homo sapiens, 96 h", "result": 4.1, "unit": "µM"}
    ]},
    {"smiles": "COc1cnc(-c2nn(Cc3c(Cl)ccc(C(=O)NCCO)c3Cl)c3ccccc23)nc1Nc1ccncc1", "note": "[Example 20-4, 2,4-dichloro-N-(2-hydroxyethyl)-3-({3-[5-methoxy-4-(pyridin-4-yla-mino)pyrimidin-2-yl]-1H-indazol-1-yl}methyl) benzamide]", "values": [
      {"measurement": "IC50", "setting": "[1]", "result": 0.75, "unit": "µM"},
      {"measurement": "IC50", "setting": "HeLa cells; [2]", "result": "≥ 10", "unit": "µM"}
    ]},
    {"smiles": "COc1cnc(-c2nn(Cc3c(Cl)ccc(C(=O)N4CCOCC4)c3Cl)c3ccccc23)nc1Nc1ccncc1", "note": "[Example 20-5, [2,4-dichloro-3-({3-[5-methoxy-4-(pyridin-4-yla-mino)pyrimidin-2-yl]-1H-indazol-1-yl}methyl)phenyl] (morpholin-4-yl)methanone]", "values": [
      {"measurement": "IC50", "setting": "[1]", "result": 8.8, "unit": "µM"},
      {"measurement": "IC50", "setting": "HeLa cells; [2]", "result": 5.9, "unit": "µM"}
    ]},
    {"smiles": "C#Cc1ccc(Cn2nc(-c3ncc(OC)c(Nc4ccncc4)n3)c3ccccc32)c(F)c1", "note": "[Example 21-1, 2-[1-(4-ethynyl-2-fluorobenzyl)-1H-indazol-3-yl]-5-methoxy-N-(pyridin-4-yl)pyrimidin-4-amine]", "values": [
      {"measurement": "IC50", "setting": "[1]", "result": 0.028, "unit": "µM"},
      {"measurement": "IC50", "setting": "HeLa cells; [2]", "result": 3.8, "unit": "µM"}
    ]},
    {"smiles": "COc1cnc(-c2nn(Cc3ccccc3F)c3ccccc23)nc1N(C)c1ccncc1", "note": "[Example 23-1, 2-[1-(2-fluorobenzyl)-1H-indazol-3-yl]-5-methoxy-N-methyl-N-(pyridin-4-yl)pyrimidin-4-amine]", "values": [
      {"measurement": "IC50", "setting": "[1]", "result": 1.4, "unit": "µM"},
      {"measurement": "IC50", "setting": "HeLa cells; [2]", "result": "≥ 10", "unit": "µM"}
    ]},
    {"smiles": "COc1cnc(-c2nn(Cc3ccccc3F)c3ccccc23)nc1Nc1ccncc1C#N", "note": "[Example 24-1, 4-({2-[1-(2-fluorobenzyl)-1H-indazol-3-yl]-5-methoxypyrimidin-4-yl}amino)pyridine-3-carbonitrile]", "values": [
      {"measurement": "IC50", "setting": "[1]", "result": 0.062, "unit": "µM"},
      {"measurement": "IC50", "setting": "HeLa cells; [2]", "result": "≥ 10", "unit": "µM"}
    ]},
    {"smiles": "COc1cnc(-c2nn(Cc3ccccc3F)c3ccccc23)nc1Nc1ccncc1", "note": "[Example 24-3, 2-[1-(2-fluorobenzyl)-1H-indazol-3-yl]-5-methoxy-N-(pyridin-4-yl)pyrimidin-4-amine]", "values": [
      {"measurement": "IC50", "setting": "[1]", "result": 0.013, "unit": "µM"},
      {"measurement": "IC50", "setting": "HeLa cells; Homo sapiens, 96 h", "result": 9.3, "unit": "µM"}
    ]}
  ]
}
